Measured values published in publication PMC9503459, “Antifungal Activity, Structural Stability, and Immunomodulatory Effects on Human Immune Cells of Defensin from the Lentil Lens culinaris” (Membranes, 2022).
“And” between values parts separate entries of the source, which are not always exact repeats. Equal entries are not always repeated. No end group written: not given here.

Columns and labels:
[1] = system: pro-inflammatory macrophages (Mφ1) from THP-1 cells; experiment: Cytokine response by multiplex xMAP, pro-inflammatory macrophages; format: cell-based, human; conditions: Mφ1 macrophages (THP-1), 2 µM, 24 h
Description: Colorectal adenocarcinoma Caco-2 cell line (ATCC HTB-37) was cultured in complete DMEM/F12 (1:1) medium containing 10% fetal bovine serum (FBS, Gibco) and 1X antibiotic-antimycotic solution (1XAAS, Invitrogen, Waltham, MA, USA). The acute monocytic leukemia THP-1 line (ATCC TIB-202) was cultured in complete RPMI-1640 medium, containing 10% FBS, 1XAAS, and […]. THP-1 cells were differentiated into pro-inflammatory macrophages (Mφ1) with phorbol 12-myristate 13-acetate (Sigma-Aldrich) for 24 h and subsequently polarized with lipopolysaccharide from E. coli (Sigma-Aldrich) and rhIFN-γ (Sigma-Aldrich) for another 48 h according to previously reported protocol. All cells were cultured in a humidified CO2 incubator (5% CO2, 37 °C). Primary peripheral blood mononuclear cells (PBMCs) collected from a healthy donor were purchased from American Type Culture Collection (ATCC PCS-800-011). CD4^+ T-helper and CD8^+ T cytotoxic cells were isolated from PBMCs by magnetic separation with mouse anti-human CD4-PE (clone 13B8.2, Beckman Coulter Diagnostics, Pasadena, CA, USA) and CD8-PE (clone REA734, Miltenyi Biotec, Bergisch Gladbach, Germany), Anti-PE MicroBeads (Miltenyi Biotec), and LS Separation Columns (Miltenyi Biotec). Isolated CD4^+ and CD8^+ cells were expanded separately with Dynabeads™ Human T-Expander CD3/CD28 (Gibco, Waltham, MA, USA) in RPMI-1640 supplemented with 10% FBS, 1XAAS and 100 U/mL rh-IL-2 (Gibco). Regulatory CD4^+ FoxP3^+ T cells (Tregs) were isolated from PBMCs by magnetic separation with CD4^+CD25^+ Regulatory T Cell Isolation Kit, human (Miltenyi Biotec). Primary CD14^+ blood monocytes were isolated from PBMCs by adherence according to standard technique. Monocyte-derived mature dendritic cells (moDCs) were obtained from CD14^+ blood monocytes according to the previously reported protocol. Briefly, blood monocytes were incubated in complete RPMI-1640 medium, containing 10% FBS, 1XAAS, 800 U/mL rhGM-CSF (Sci-Store, Russia, Moscow) and 500 U/mL rhIL-4 (Sci-Store) for 3 days. Fresh complete RPMI-1640 medium with rhGM-CSF and rhIL-4 was added to the culture on day 3. On day 5, fresh complete RPMI-1640 containing 100 U/mL rhTNF-α (Sigma) as well as 800 U/mL rhGM-CSF and 500 U/mL rhIL-4 was added and the culture was incubated for another 4 days until full maturation.
Caco-2 cells were seeded into the wells of a 48-well plate, coated with 0.1% bovine collagen (Sigma-Aldrich) for 24 h, 3 weeks before the experiment with complete DMEM/F12 (1:1) medium renewal every 2–3 days. Monocytes, moDCs, CD4^+ T-helper and CD8^+ T cytotoxic cells, Mφ1, and Regulatory CD4^+ FoxP3^+ T cells were seeded into the wells of 48-well plates in the complete RPMI-1640 medium supplemented with 10% Human AB serum (HABS, Capricorn Scientific, Ebsdorfergrund, Germany) and 1XAAS 24 h prior to the experiment; medium in Caco-2-containing wells was also replaced with the same medium. After 24 h, half of the medium in each well was replaced by fresh complete RPMI-1640 medium with 10% HABS, supplemented with 4 µM of Lc-def for the sample wells or fresh medium alone for the control wells. Cell cultures were kept in CO2-incubator (5% CO2, 37 °C) for another 24 h. Culture supernatants were collected 24 h later and stored at −70 °C degrees less than one month prior to the analytes assessment. […]

PBMCs = experiment: Resazurin-based cytotoxicity assay, PBMCs; format: cell-based, human; conditions: 50 μM peptide, 24 h
Description: The cytotoxic properties of Lc-def and melittin as a control were investigated also by resazurin-based cell cytotoxicity assay. PBMCs and THP-1 cells were seeded in 96-well plates at 2 × 10^6 and 1 × 10^6 cells per well, respectively, in RPMI-1640 supplemented with 10% FBS, and kept in CO2-incubator. After 24 h serial two-fold dilutions of compounds in culture medium were then added to final concentrations from 0.2 to 50 μM. After 24 h of incubation with the peptides, resazurin (Sigma) was added at a final concentration of 0.7 mM, and the plates were incubated overnight (16 h). Fluorescent resorufin was registered using 535/595 filter at PlateReader AF2200 (Eppendorf, Hamburg, Germany). Untreated corresponding cells were used as negative controls. The cell viability was calculated as: cell viability (%) = (Fsample/Fcontrol) × 100%. The experiment was carried out twice in triplicate.

**Q.** Which results are given for “Lc-def: defensin from lentil Lens culinaris seeds (UniProt:B3F051), recombinant, overexpressed in Escherichia coli (KTCENLSDSFKGPCIPDGNCNKHCKEKEHLLSGRCRDDFRCWCTRNC; disulfide (positions not given here); ends not checked; also: disulfide bonds present, pairing not given here; UniProt B3F051 28-74, looked up)”?
**A.** EGF [1]: 2.32 pg/mL; Eotaxin [1]: <3.23↓ pg/ml; FGF-2 [1]: 16.21 pg/mL; FLT-3L [1]: 2.27 pg/mL; Fractalkine [1]: <23.19↓ pg/ml; G-CSF [1]: 1150 pg/mL; GM-CSF [1]: 74.32 pg/mL; GROa [1]: 545.96 pg/mL; IFNa2 [1]: 7.77 pg/mL; IFNg [1]: <1.99↓ pg/ml; IL-1RA [1]: 101.1 pg/mL; IL-1a [1]: 38.93 pg/mL; IL-1b [1]: 471.74 pg/mL; IL-2 [1]: <0.31↓ pg/ml; IL-3 [1]: <0.48↓ pg/ml; IL-4 [1]: 0.92 pg/mL; IL-5 [1]: <0.24↓ pg/ml; IL-6 [1]: 1022 pg/mL; IL-7 [1]: <0.33↓ pg/ml; IL-8 [1]: >17785↑ pg/ml; IL-9 [1]: <1.05↓ pg/ml; IL-10 [1]: 41.17 pg/mL; IL-12 (p40) [1]: <3.02↓ pg/ml; IL-12 (p70) [1]: 4.54 pg/mL; IL-13 [1]: 15.11 pg/mL; IL-15 [1]: <1.45↓ pg/ml; IL-17A [1]: <1.55↓ pg/ml; IL-17E/IL-25 [1]: <20.59↓ pg/ml; IL-17F [1]: <16.96↓ pg/ml; IL-18 [1]: 6.51 pg/mL; IL-22 [1]: 28.78 pg/mL; IL-27 [1]: 40.89 pg/mL; IP-10 [1]: <1.56↓ pg/ml; M-GSF [1]: <23.75↓ pg/ml; MCP-1 [1]: 259 pg/mL and 259.04 pg/mL; MCP-3 [1]: 8.66 pg/mL; MDC [1]: <0.35↓ pg/ml; MIG [1]: 124 pg/mL and 124.97 pg/mL; MIP-1a [1]: 2680 pg/mL; MIP-1b [1]: 413 pg/mL and 413.11 pg/mL; PDGF-AA [1]: 4181 pg/mL; PDGF-AB/BB [1]: <9.75↓ pg/ml; RANTES [1]: 23.61 pg/mL; TGF-a [1]: 0.89 pg/mL; TNFa [1]: 1942 pg/mL; TNFb [1]: 1.95 pg/mL; VEGFa [1]: 48.67 pg/mL; sCD40L [1]: 14.8 pg/mL; cell viability (PBMCs): 100%
